{"source": "paper PMC9923724", "about": "“Half sandwich-type osmium, ruthenium, iridium and rhodium complexes with bidentate glycosyl heterocyclic ligands induce cytostasis in platinum-resistant ovarian cancer cells and bacteriostasis in Gram-positive multiresistant bacteria” (Frontiers in Chemistry, 2023)", "key": {"[1]": {"tested_on": "A2780 ovarian cancer cells", "assay": "SRB assay (cytostasis, 48 h) on A2780 cells", "format": "cell-based", "conditions": "48 h treatment", "description": "First, we assessed a set of osmium complexes (similar to Ia [[Kacsir et al., 2022]) in Figure 1] and their sugar-derived ligands, in which the benzoyl protective groups on the carbohydrate moiety were replaced by aliphatic acyl groups of different chain length (straight chain C3-C7–CO). Osmium was selected as a central ion, since osmium complexes had the best biological activity in our previous studies ([Balázs et al., 2022]; [Kacsir et al., 2022]). These compounds were tested on A2780 ovarian cancer cells for toxicity and cytostasis. The therapy of ovarian cancer is centered around platinum compounds ([Brown et al., 2019]; [Sipos et al., 2021]), therefore, it was logical to use a cellular model of ovarian cancer for the initial testing of the compounds. Toxicity was assessed using the MTT assay that measures the activity of mitochondrial complex I. We chose 4 h long treatment as in an MTT assay this time point is suitable to detect rapid, direct toxicity. Cytostasis was assessed after 48 h of treatment using the SRB assay that assesses protein content that corresponds to cell count. The characteristics of the compounds are detailed in Table 2.\n3 × 10^3 A2780 cells, were plated to 96 well plates. Cells were treated with the compounds in the concentrations indicated for either 4 h for an MTT assay or for 48 h for an SRB assay. Data is represented as average ± SD, from three biological replicates; individual assays were performed in duplicates. Values were normalized for vehicle treated cells, absorbance for vehicle treated cells equals to 1. […] Except for the Os-6 complex, Two-way ANOVA test was performed and all values were compared with each other (Tukey’s post hoc test). […] Non-linear regression was performed on the data.\n3 × 10^3 A2780 cells, 2 × 10^3 ID8 cells and 4 × 10^3 primary fibroblasts were plated to 96 well plates. Cells were treated with the compounds in the concentrations indicated for either 4 h for an MTT assay or for 48 h for an SRB assay. Data is represented as average ± SD, from three biological replicates; individual assays were performed in duplicates. Values were normalized for vehicle treated cells, absorbance for vehicle treated cells equals to 1. Statistical significance was assessed using two-way ANOVA test comparing the free ligand and each complex as a complex-ligand pair. Before the test normality was assessed using the D’Agostino-Pearson test. The ID8 SRB Ir-7+L-7 dataset had lognormal distribution. […] All other datasets had normal distribution. For better visibility the p values are presented in an excel sheet at https://figshare.com/s/2c942a812caea8869a67. Non-linear regression was performed on the A2780 SRB and the ID8 SRB datasets.\nThe assay was performed similar to ([Kovács et al., 2019]). Cells were seeded in 96 well plates the day before the assay. Cells were treated with the compounds for 48 h. Cells were fixed with 10% trichloroacetic acid (TCA). Fixed cells were washed in distilled water 3 times followed by staining with SRB (0.4 m/V% dissolved in 1% acetic acid) for 10 min. Stained cells were washed in 1% acetic acid 5 times; acetic acid was removed and cells were left to dry. Protein-bound SRB was released by adding 100 µl 10 mM Tris base. Plates were measured in a plate photometer (Thermo Scientific Multiscan GO spectrophotometer, Waltham, MA, United States) at 540 nm. On each plate wells were designed to contain vehicle-treated cells. In calculations the readings for these wells was considered as 1 and all readings were expressed relative to these values.\nStatistical analysis was performed using 8.0.1 version of Graphpad Prism. Values were tested for normal distribution using the D’Agostino and Pearson normality test. When necessary, values were log normalized or were normalized using the Box-Cox normalization method ([Box and Cox, 1964]) as indicated in the figure captions. […]"}, "[2]": {"tested_on": "4-hydroxynonenal (4HNE)-modified proteins in A2780 cells", "assay": "Western blot for 4HNE-modified proteins in A2780 cells", "format": "cell-based", "conditions": "IC50 concentrations, 15 or 30 min, bands ∼70 kDa and ∼60 kDa", "description": "FIGURE 9 (A) Vitamin E, a lipid soluble antioxidant blocks the cytostatic activity of the bioactive complexes. 1.5 × 10^3 A2780 cells were plated to 96 well plates. Cells were treated with the compounds in the concentrations indicated for 48 h followed by an SRB assay. Data is represented as average ± SD, from four biological replicates; individual assays were performed in duplicates. Values were normalized for vehicle treated cells, absorbance for vehicle treated cells equals to 1. Normality was checked using the D’Agostino-Pearson normality test. […] Statistical significance was assessed using two-way ANOVA test comparing all measurement points. * and *** represent statistical significance at p <0.05 and 0.001, respectively, between the lowest concentration and the higher concentrations among non-vitamin E-treated cells. ! and !!! represent statistical significance at p <0.05 and 0.001, respectively, between the lowest concentration and the higher concentrations among vitamin E-treated cells. #, ## and ### represent statistical significance at p <0.05, p <0.01 and 0.001, respectively, between the non-vitamin E-treated vs. vitamin E-treated cells. […] Cells were harvested and lysed. Cellular proteins were separated on a 10% SDS-PAGE gel and were blotted. […]\nTo complement the vitamin E experiments we assessed oxidative stress by detecting the formation of 4-hydroxynonenal (4HNE)-modified proteins, a hallmark of oxidative stress ([Ayala et al., 2014]; [Zhang and Forman, 2017]). […]\nSDS-polyacrylamide gel electrophoresis and Western blot was performed as in ([Márton et al., 2018]) using an antibody against 4HNE (Abcam (ab46545) 1:1000) that was detected using a corresponding peroxidase-conjugated secondary antibody (1:10000, Cell Signaling Technology, Inc., Beverly, MA, United States). […] ECL and amido black pictures were captured using the ChemiDoc Touch Imaging System (Bio-Rad Laboratories, Inc., Hercules, California, United States) and the pictures were evaluated using the Image Lab software (Bio-Rad)."}}, "data": [{"smiles": "Cc1c(C)c(C)[c-](C)c1C.F[P-](F)(F)(F)(F)F.O=C(OCC1OC(n2cc(-c3ccc4ccccc4n3)nn2)C(OC(=O)c2ccccc2)C(OC(=O)c2ccccc2)C1OC(=O)c1ccccc1)c1ccccc1.[Cl][Ir+2]", "note": "(mixture of isomers) [Ir-7]", "values": [{"measurement": "A2780 SRB IC50", "setting": "[1]", "result": "submicromolar or low micromolar"}, {"measurement": "A2780 SRB Max. (maximal inhibition)", "setting": "[1]", "result": ">90", "unit": "%"}, {"measurement": "IC50", "setting": "[1]", "result": 891, "unit": "nM"}, {"measurement": "4HNE formation (4HNE-modified proteins)", "setting": "[2]", "result": "gross induction of 4HNE formation"}]}, {"smiles": "Cc1ccc(C(C)C)cc1.F[P-](F)(F)(F)(F)F.O=C(OCC1OC(n2cc(-c3ccc4ccccc4n3)nn2)C(OC(=O)c2ccccc2)C(OC(=O)c2ccccc2)C1OC(=O)c1ccccc1)c1ccccc1.[Cl][Os+]", "note": "(mixture of isomers) [Os-7]", "values": [{"measurement": "A2780 SRB IC50", "setting": "[1]", "result": "submicromolar or low micromolar"}, {"measurement": "A2780 SRB Max. (maximal inhibition)", "setting": "[1]", "result": ">90", "unit": "%"}, {"measurement": "IC50", "setting": "[1]", "result": 578, "unit": "nM"}, {"measurement": "4HNE formation (4HNE-modified proteins)", "setting": "[2]", "result": "gross induction of 4HNE formation"}]}, {"smiles": "Cc1ccc(C(C)C)cc1.F[P-](F)(F)(F)(F)F.O=C(OCC1OC(n2cc(-c3ccc4ccccc4n3)nn2)C(OC(=O)c2ccccc2)C(OC(=O)c2ccccc2)C1OC(=O)c1ccccc1)c1ccccc1.[Cl][Ru+]", "note": "(mixture of isomers) [Ru-7]", "values": [{"measurement": "A2780 SRB IC50", "setting": "[1]", "result": "submicromolar or low micromolar"}, {"measurement": "A2780 SRB Max. (maximal inhibition)", "setting": "[1]", "result": ">90", "unit": "%"}, {"measurement": "IC50", "setting": "[1]", "result": 847, "unit": "nM"}, {"measurement": "4HNE formation (4HNE-modified proteins)", "setting": "[2]", "result": "gross induction of 4HNE formation"}]}]}
